“And” between values parts separate entries of the source, which are not always exact repeats. Equal entries are not always repeated. Where two headings read alike, the source gives them in different places. Marks after values point to notes of the source that are not given here.
Assays:
Mouse pharmacokinetics = assay type: in vivo; settings: for Vd: in vivo, read-out: Vdss; for Vd / Cl: IV 2 mg/kg; for bioavailability: PO 10 mg/kg vs IV 2 mg/kg
From the text: All animal experiments were approved by the Institutional Animal Care and Use Committee (IACUC) of Bristol Myers Squibb.

[1] = test system: L. sigmodontis adult worms; settings: for adult worm burden reduction: figure prints reduction as negative value; for reduction of adult worm burden: mice, 30 mg/kg BID
O. volvulus L5 larvae [2] = assay: O. volvulus L5 ex vivo assay, motility; assay type: cell-based; settings: Onchocerca volvulus, 504 h, read-out: O. volvulus L5 % inhibition of motility
Description: O. volvulus larvae (L4) were prepared using cryopreserved O. volvulus L3 cultured in a medium containing 1:1 NCTC-109 and IMDM (Iscove’s modified Dulbecco’s medium) supplemented with Glutamax (1×) and 2× Antibiotic-Antimycotic (Life Technologies). This culturing medium was then added in transwell 24-well plates containing human umbilical vein endothelial cell (HUVEC) monolayers, containing the L4 larvae. A week prior to conducting an assay, the cultured O. volvulus larvae (L5) were transferred into a Petri dish containing fresh medium. Aliquots of 8–10 worms were retrieved from the Petri dish and placed inside new transwells over newly seeded HUVEC monolayers in the medium described above. After the transfer of O. volvulus L5 to the plates, the test compounds were dissolved in DMSO, added to each well, and incubated at 37 °C in a 5% CO2. The media containing freshly prepared compounds were partially replaced every 2–3 days for 14 days. After 14 days, the media were completely replaced. The untreated control contains the media described above with a final concentration of 0.05% DMSO. The motility was measured every 2–3 days with the following scale: 100% motility, constant coiling movement; 75% motility, slower coiling; 50% motility, slow and intermittent movement; 25% motility, very slow movement or twitching; and 0% motility, no movement. The motility was measured visually by two operators. On day 28, the viability of O. volvulus L5 was measured by MTT. Following washout and incubation during 1 h in PBS under 5% CO2, worms were observed under an inverted microscope. Worms were considered dead if no staining or less than 50% within the worm was observed. Otherwise, if worms stained blue or more than 50% stained, then they are considered alive. All test treatments were performed in duplicates. Significance was determined using a t test.

[3] = Plasma protein binding, rat; assay type: in vitro ADME; settings: read-out: Plasma Protein Binding %, r (converted)
CYP3A4 = CYP3A4 (Homo sapiens, UniProt P08684); assay: Cytochrome P450 inhibition, 3A4; assay type: in vitro ADME; settings: read-out: Cytochrome P450s IC50, 3A4
CYP2C19 = CYP2C19 (Homo sapiens, UniProt P33261); assay: Cytochrome P450 inhibition, 2C19; assay type: in vitro ADME; settings: read-out: Cytochrome P450s IC50, 2C19
CYP2C9 = CYP2C9 (Homo sapiens, UniProt P11712); assay: Cytochrome P450 inhibition, 2C9; assay type: in vitro ADME; settings: read-out: Cytochrome P450s IC50, 2C9
[4] = THLE-2 cytotoxicity assay (ATP); settings: human
In short: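 THLE-2 cells in supplemented LHC-8 medium were exposed for 24 or 72 h to final concentrations of 0.01–300 μM. Viability was read as ATP by CellTiter-Glo luminescence and normalized to DMSO vehicle. IC50 came from nonlinear regression of dose-response curves.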

hERG = target: T1, hERG (Homo sapiens, UniProt Q12809); assay: hERG inhibition; assay type: cell-based; settings: human
T1 construct: expressed in transfected cells

O. volvulus L5 larvae [5] = assay: O. volvulus L5 ex vivo assay, MTT viability; assay type: cell-based, Onchocerca volvulus; settings: Day 21, 1 uM
Description: This culturing medium was then added in transwell 24-well plates containing human umbilical vein endothelial cell (HUVEC) monolayers, containing the L4 larvae. A week prior to conducting an assay, the cultured O. volvulus larvae (L5) were transferred into a Petri dish containing fresh medium. […] After the transfer of O. volvulus L5 to the plates, the test compounds were dissolved in DMSO, added to each well, and incubated at 37 °C in a 5% CO2. The media containing freshly prepared compounds were partially replaced every 2–3 days for 14 days. After 14 days, the media were completely replaced. The untreated control contains the media described above with a final concentration of 0.05% DMSO. […] The motility was measured visually by two operators. […] Following washout and incubation during 1 h in PBS under 5% CO2, worms were observed under an inverted microscope. Worms were considered dead if no staining or less than 50% within the worm was observed. Otherwise, if worms stained blue or more than 50% stained, then they are considered alive. All test treatments were performed in duplicates. Significance was determined using a t test.

[6] = test system: CEREP receptor, ion channel, transporter panel; assay: Eurofins CEREP non-kinase panel, binding; settings: binding at 10 μM
Description: [36] Eurofins Cerep, Le Bois l’Evêque B.P. 30001, 86 600 Celle l’Evescault, France. Compound binding was calculated as a % inhibition of the binding of a radioactively labeled ligand specific for each target.

P-gp (MDR1) = target: T2, P-gp (MDR1) (Homo sapiens, UniProt P08183); assay: MDCK/MDR1 permeability and efflux; assay type: in vitro ADME; settings: dog
T2 construct: expressed in transfected cells; host or cells: MDCK (Madin Darby canine kidney) cells
From the text: Our approach was to target compounds with efflux ratio (ER) >2.5 in the MDCK cell line transfected with MDR1 (multidrug resistance-1 transfected Madin Darby canine kidney cell line). […] Our goal was to impart structural elements designed to impart Pgp recognition.

[7] = male CD-1 mouse, PO 30 mg/kg suspension
[8] = female BALB/c mouse, PO 30 mg/kg
[9] = male CD-1 mouse, PO 10 mg/kg suspension
[10] = plasma, male CD-1 mouse, PO 10 mg/kg suspension, read-out: Tmax

CYP2C19, sequence (P33261 whole entry): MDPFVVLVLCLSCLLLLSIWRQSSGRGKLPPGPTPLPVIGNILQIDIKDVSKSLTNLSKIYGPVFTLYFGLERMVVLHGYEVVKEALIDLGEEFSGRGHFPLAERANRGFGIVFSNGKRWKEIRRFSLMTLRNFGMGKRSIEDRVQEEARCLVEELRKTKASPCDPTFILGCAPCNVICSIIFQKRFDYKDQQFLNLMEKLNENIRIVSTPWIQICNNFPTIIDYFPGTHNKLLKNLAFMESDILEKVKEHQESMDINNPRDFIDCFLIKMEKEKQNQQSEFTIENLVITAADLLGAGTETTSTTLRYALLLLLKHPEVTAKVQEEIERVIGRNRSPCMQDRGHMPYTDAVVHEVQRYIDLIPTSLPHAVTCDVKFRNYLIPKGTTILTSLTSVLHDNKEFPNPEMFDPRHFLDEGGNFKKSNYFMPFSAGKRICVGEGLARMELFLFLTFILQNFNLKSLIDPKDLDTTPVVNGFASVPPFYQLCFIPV
CYP3A4, sequence (P08684 whole entry): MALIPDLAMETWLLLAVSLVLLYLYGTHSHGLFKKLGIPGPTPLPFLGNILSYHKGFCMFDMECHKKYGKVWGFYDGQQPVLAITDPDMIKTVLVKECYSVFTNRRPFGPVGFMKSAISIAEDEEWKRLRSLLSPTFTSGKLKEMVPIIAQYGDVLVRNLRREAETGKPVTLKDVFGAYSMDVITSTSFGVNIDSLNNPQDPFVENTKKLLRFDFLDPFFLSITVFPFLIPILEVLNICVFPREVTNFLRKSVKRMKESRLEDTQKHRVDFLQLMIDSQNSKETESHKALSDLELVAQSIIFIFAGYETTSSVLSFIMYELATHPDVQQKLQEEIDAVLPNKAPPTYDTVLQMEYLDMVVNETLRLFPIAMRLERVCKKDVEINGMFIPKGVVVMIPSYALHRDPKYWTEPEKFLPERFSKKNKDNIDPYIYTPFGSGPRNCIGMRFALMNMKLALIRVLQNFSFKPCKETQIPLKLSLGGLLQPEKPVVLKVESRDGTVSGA
T1 sequence (Q12809 whole entry): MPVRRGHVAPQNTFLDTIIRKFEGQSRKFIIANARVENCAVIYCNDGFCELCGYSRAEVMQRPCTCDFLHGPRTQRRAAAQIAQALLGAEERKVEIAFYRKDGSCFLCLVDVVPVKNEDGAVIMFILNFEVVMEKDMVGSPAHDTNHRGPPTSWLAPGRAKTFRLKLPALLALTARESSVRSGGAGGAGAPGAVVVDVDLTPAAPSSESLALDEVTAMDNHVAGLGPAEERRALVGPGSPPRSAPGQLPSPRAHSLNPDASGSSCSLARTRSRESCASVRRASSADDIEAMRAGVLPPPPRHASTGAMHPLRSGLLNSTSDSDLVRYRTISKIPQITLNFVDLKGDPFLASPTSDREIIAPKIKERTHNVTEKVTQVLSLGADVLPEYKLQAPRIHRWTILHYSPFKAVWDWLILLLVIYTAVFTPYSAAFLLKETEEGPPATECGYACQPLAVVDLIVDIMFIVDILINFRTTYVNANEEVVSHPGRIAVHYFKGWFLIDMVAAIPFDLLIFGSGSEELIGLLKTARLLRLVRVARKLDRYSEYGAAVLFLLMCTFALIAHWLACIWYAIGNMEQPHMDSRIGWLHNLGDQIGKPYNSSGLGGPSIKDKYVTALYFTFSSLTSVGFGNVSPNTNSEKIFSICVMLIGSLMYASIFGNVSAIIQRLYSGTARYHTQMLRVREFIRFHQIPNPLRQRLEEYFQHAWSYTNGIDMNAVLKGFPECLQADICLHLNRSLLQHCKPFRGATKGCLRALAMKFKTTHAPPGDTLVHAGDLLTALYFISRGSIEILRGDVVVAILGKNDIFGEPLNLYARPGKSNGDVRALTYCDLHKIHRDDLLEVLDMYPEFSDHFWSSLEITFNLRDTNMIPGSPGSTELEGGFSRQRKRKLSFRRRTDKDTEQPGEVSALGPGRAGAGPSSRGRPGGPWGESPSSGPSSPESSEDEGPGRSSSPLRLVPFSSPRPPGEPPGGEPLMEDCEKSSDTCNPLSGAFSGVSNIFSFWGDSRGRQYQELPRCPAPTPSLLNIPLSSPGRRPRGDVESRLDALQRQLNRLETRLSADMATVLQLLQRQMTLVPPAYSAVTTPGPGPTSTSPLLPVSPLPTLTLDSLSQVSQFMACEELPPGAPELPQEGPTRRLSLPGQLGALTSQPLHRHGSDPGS
CYP2C9, sequence (P11712 whole entry): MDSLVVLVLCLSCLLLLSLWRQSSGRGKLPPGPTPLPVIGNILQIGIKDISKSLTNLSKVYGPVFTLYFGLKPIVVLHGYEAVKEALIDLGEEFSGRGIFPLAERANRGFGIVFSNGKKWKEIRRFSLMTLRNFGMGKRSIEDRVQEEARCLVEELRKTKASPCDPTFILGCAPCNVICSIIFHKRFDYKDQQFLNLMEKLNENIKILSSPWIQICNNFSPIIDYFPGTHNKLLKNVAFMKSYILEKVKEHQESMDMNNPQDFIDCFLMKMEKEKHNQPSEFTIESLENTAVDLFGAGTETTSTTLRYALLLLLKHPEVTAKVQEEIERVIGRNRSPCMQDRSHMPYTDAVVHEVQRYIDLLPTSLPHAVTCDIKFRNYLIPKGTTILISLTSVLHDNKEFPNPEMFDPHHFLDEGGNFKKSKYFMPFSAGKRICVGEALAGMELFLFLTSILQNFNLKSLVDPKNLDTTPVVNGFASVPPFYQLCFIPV
T2 sequence (P08183 whole entry): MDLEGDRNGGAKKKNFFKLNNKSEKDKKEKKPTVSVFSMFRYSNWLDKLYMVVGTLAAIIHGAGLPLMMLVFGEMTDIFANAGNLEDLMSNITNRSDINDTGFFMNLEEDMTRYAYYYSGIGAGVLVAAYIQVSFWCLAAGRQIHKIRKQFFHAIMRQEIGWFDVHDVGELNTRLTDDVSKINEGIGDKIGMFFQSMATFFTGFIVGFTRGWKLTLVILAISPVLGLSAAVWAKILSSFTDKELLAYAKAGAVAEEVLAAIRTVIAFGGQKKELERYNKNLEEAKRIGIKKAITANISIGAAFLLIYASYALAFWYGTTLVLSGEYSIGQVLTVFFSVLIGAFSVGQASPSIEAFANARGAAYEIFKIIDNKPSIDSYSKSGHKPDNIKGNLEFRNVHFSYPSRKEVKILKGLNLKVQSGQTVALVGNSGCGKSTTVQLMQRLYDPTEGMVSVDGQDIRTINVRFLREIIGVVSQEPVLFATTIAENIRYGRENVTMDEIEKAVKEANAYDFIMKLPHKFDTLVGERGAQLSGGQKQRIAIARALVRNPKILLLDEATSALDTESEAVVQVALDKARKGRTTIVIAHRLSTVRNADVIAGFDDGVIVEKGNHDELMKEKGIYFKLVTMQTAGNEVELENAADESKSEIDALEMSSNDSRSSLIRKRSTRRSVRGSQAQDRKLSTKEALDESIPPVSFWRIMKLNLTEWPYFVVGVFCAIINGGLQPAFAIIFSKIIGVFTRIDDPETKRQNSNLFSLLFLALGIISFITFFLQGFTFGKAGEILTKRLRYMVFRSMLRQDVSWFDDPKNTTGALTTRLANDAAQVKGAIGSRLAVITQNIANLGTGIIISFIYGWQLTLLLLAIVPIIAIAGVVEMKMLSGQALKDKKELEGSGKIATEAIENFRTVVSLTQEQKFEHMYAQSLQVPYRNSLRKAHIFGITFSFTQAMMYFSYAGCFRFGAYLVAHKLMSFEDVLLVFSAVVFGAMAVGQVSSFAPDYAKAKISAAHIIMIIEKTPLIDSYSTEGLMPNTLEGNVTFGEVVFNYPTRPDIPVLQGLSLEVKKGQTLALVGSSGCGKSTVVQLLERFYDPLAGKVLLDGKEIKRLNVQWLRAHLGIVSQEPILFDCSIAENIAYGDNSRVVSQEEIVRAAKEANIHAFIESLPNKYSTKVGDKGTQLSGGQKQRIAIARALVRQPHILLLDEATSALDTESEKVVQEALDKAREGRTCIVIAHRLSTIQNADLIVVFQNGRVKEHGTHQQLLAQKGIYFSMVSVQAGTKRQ

Structure (SMILES): Cc1cccnc1Nc1nc(-c2ccc(OC3CCN(C4CC4)CC3)cn2)ns1 [Compound 19, 3-[5-[(1-Cyclopropyl-4-piperidyl)oxy]-2-pyridyl]-N-(3-methyl-2-pyridyl)-1,2,4-thiadiazol-5-amine]
- AUC(0-inf) (Mouse pharmacokinetics; [7]): 6.23 ± 6.16 µM·h
- Cmax (Mouse pharmacokinetics; [7]): 2080 ± 1220 nM
- Tmax (Mouse pharmacokinetics; [7]): 0.5 ± 0.0 h

Structure (SMILES): CC(C)Oc1ccc(-c2nsc(Nc3ncccc3N(C)C)n2)nc1 [Compound 31, N^2-(3-(5-Isopropoxypyridin-2-yl)-1,2,4-thiadiazol-5-yl)-N3,N3-dimethylpyridine-2,3-diamine]
- adult worm burden reduction ([1]; mice infected SC with 40 L3 larvae, 30 mg/kg BID 7d oral): -97.1%
- reduction of adult worm burden ([1]; 6 days of dosing): 97%
- inhibition at 1 µM (O. volvulus L5 larvae [2]): 100%
- fraction unbound [3]: < 0.01
- Kp at 2 h (Mouse pharmacokinetics; brain and plasma, female BALB/c mouse, PO 30 mg/kg, 2 h, read-out: brain/plasma [b]/[p]): 1.1
- AUC(0-inf) (Mouse pharmacokinetics; [8]): 4.66 ± 0.54 µM·h
- Cmax (Mouse pharmacokinetics; [8]): 5180 nM
- Tmax (Mouse pharmacokinetics; [8]): 0.5 h
- Vd (Mouse pharmacokinetics; male CD-1 mouse): 3.01 L/kg
- Cl (Mouse pharmacokinetics; male CD-1 mouse): 62.9 mL/min/kg
- AUC(0-inf) (Mouse pharmacokinetics; [9]): 0.94 ^h μM·h
- Cmax (Mouse pharmacokinetics; [9]): 650 nM
- Tmax (Mouse pharmacokinetics; [10]): 0.5 h
- bioavailability (Mouse pharmacokinetics; plasma, male CD-1 mouse): 13%
- IC50 (CYP3A4): 22 µM
- IC50 (CYP2C19): 20 µM
- IC50 (CYP2C9): 5.5 µM
- CC50 [4]: 36 µM
- IC50 (hERG): 11.4 µM
- O. volvulus L5 % inhibition of viability (O. volvulus L5 larvae [5]): 100%
- CEREP receptor, ion channel, transporter panel: targets bound / tested ([6]; targets with >70%): 5/76

Structure (SMILES): CC(=O)N(C)c1cccnc1Nc1nc(-c2ccc(OC(C)C)cn2)ns1 [Compound 47, N-(2-((3-(5-Isopropoxypyridin-2-yl)-1,2,4-thiadiazol-5-yl)amino)pyridin-3-yl)-N-methylacetamide]
- Papp A→B (P-gp (MDR1)): 3.9 ×10⁻⁶ cm/s
- inhibition at 1 µM (O. volvulus L5 larvae [2]; Day 21, 1 uM): 100%
- fraction unbound [3]: 0.05
- Kp (Mouse pharmacokinetics; brain and plasma, male CD-1 mouse, PO 30 mg/kg, based on AUC0-t, read-out: brain/plasma [b]/[p]): 0.08
- Vd (Mouse pharmacokinetics; male CD-1 mouse): 0.74 ± 0.08 L/kg
- Cl (Mouse pharmacokinetics; male CD-1 mouse): 3.6 ± 0.22 mL/min/kg
- AUC(0-inf) (Mouse pharmacokinetics; [9]): 68.1NC ^j μM·h
- Cmax (Mouse pharmacokinetics; [9]): 5270 ± 830 nM
- AUC(0-inf) (Mouse pharmacokinetics; [7]): 121 ^h μM·h
- Cmax (Mouse pharmacokinetics; [7]): 13900 nM
- Tmax (Mouse pharmacokinetics; [7]): 0.50 ^h
- Tmax (Mouse pharmacokinetics; [10]): 4 ± 2.8 h
- bioavailability (Mouse pharmacokinetics; plasma, male CD-1 mouse): 57%
- IC50 (CYP3A4): > 30 µM
- IC50 (CYP2C19): 29 µM
- IC50 (CYP2C9): 5.7 µM
- CC50 [4]: 106 µM
- IC50 (hERG): > 30 µM
- O. volvulus L5 % inhibition of viability (O. volvulus L5 larvae [5]): 100%
- CEREP receptor, ion channel, transporter panel: targets bound / tested ([6]; targets with >50%): 1/76

Structure (SMILES): CC(C)Oc1ccc(-c2nsc(Nc3ncccc3N(C)C(=O)C3CC3)n2)nc1 [Compound 50, N-(2-((3-(5-Isopropoxypyridin-2-yl)-1,2,4-thiadiazol-5-yl)amino)pyridin-3-yl)-N-methylcyclopropanecarboxamide]
- Papp A→B (P-gp (MDR1)): 19.3 ×10⁻⁶ cm/s
- inhibition at 1 µM (O. volvulus L5 larvae [2]; Day 21, 1 uM): 100%
- Kp (Mouse pharmacokinetics; male, CD-1, mouse, brain and plasma, brain to plasma ratio, dose not given, read-out: [b]/[p]): 0.11
- O. volvulus L5 % inhibition of viability (O. volvulus L5 larvae [5]): 100%

Structure (SMILES): CC(C)c1ccnc(-c2nsc(Nc3ncccc3C(F)(F)F)n2)c1 [Compound 27]
- inhibition at 1 µM (O. volvulus L5 larvae [2]): 100%

Structure (SMILES): CN(C)c1cccnc1Nc1nc(-c2ccc(OC3CC3)cn2)ns1 [Compound 32]
- reduction of adult worm burden ([1]; 7 days of dosing): 70%
- adult worm burden reduction ([1]; naturally infected mice, 30 mg/kg BID 6d oral): -69.9%
- inhibition at 1 µM (O. volvulus L5 larvae [2]): 100%
- AUC(0-inf) (Mouse pharmacokinetics; [7]): 3.85 ± 0.76 µM·h
- Cmax (Mouse pharmacokinetics; [7]): 2340 ± 520 nM
- Tmax (Mouse pharmacokinetics; [7]): 0.5 ± 0.00 h
- O. volvulus L5 % inhibition of viability (O. volvulus L5 larvae [5]): 83%

Structure (SMILES): CC(C)c1ccnc(-c2nsc(Nc3cc(C(F)(F)F)ccn3)n2)c1 [Compound 35, 3-(4-Isopropylpyridin-2-yl)-N-(4-(trifluoromethyl)pyridin-2-yl)-1,2,4-thiadiazol-5-amine]
- Cmax (Mouse pharmacokinetics; [7]): 210 ± 20 nM
- Tmax (Mouse pharmacokinetics; [7]): 1.8 ± 1.7 h
- AUC(0-inf) (Mouse pharmacokinetics; male CD-1 mouse, PO 30 mg/kg suspension, 30 mg/kg): 1.7 µM·h and 1.73 ± 0.59 µM·h

Structure (SMILES): CC(C)Oc1ccc(-c2nsc(Nc3ncccc3C(C)C)n2)nc1 [Compound 25, 3-(5-Isopropoxy-2-pyridyl)-N-(3-isopropyl-2-pyridyl)-1,2,4-thiadiazol-5-amine]
- AUC(0-inf) (Mouse pharmacokinetics; [7]): 20.0 ± 9.9 µM·h
- Cmax (Mouse pharmacokinetics; [7]): 2050 ± 270 nM
- Tmax (Mouse pharmacokinetics; [7]): 2.4 ± 3.8 h

Structure (SMILES): Cc1cccnc1Nc1nc(-c2ccc(OC(C)C)cn2)ns1 [Compound 10, 3-(5-Isopropoxypyridin-2-yl)-N-(3-methylpyridin-2-yl)-1,2,4-thiadiazol-5-amine]
- tolerability in mice ([1]; reason for lowering the dose from 30 to 10 mg/kg): tolerability issues
- AUC(0-inf) (Mouse pharmacokinetics; [7]): 26.0 ± 9.0 µM·h
- Cmax (Mouse pharmacokinetics; [7]): 8260 ± 2600 nM
- Tmax (Mouse pharmacokinetics; [7]): 1.0 ± 0.6 h

Structure (SMILES): Cc1cccnc1Nc1nc(-c2ccc(OC3CC3)cn2)ns1 [Compound 11, 3-(5-Cyclopropoxypyridin-2-yl)-N-(3-methylpyridin-2-yl)-1,2,4-thiadiazol-5-amine]
- inhibition at 1 µM (O. volvulus L5 larvae [2]): 100%
- O. volvulus L5 % inhibition of viability (O. volvulus L5 larvae [5]): 100%
